Measurements as given in paper PMC5951806, “Rapid labelling and covalent inhibition of intracellular native proteins using ligand-directed N-acyl-N-alkyl sulfonamide” (Nature Communications, 2018).

Tests used:
Test in all cases: TMT LC-MSMS of 11-labelled proteins
Assay type in all cases: cell-based
[1] = biological target: Sodium/potassium-transporting ATPase subunit alpha-1 (ATP1A1) (Homo sapiens, UniProt P05023)
[2] = biological target: Argininosuccinate synthase (ASS1) (Homo sapiens, UniProt P00966); settings: sheet Merged, SKBR3 cells
[3] = biological target: Heat shock cognate 71 kDa protein (HSPA8) (Homo sapiens, UniProt P11142)
[4] = biological target: Endoplasmin (HSP90B1) (Homo sapiens, UniProt P14625)
[5] = biological target: T1, citrate synthase, mitochondrial (CS) (Homo sapiens, UniProt O75390)
T1 sequence (O75390 28-466): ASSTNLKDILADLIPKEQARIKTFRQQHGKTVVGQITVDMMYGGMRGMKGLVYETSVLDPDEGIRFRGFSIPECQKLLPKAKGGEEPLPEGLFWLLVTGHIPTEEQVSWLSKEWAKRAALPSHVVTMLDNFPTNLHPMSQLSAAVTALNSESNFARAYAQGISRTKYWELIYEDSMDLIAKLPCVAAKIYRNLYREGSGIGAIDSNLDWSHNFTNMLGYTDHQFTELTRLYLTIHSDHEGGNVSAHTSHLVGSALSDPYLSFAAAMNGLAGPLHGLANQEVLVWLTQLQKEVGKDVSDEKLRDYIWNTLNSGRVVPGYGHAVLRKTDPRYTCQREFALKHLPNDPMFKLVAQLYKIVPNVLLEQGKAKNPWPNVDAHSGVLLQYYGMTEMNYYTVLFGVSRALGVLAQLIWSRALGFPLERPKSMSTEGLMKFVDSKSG

[6] = sheet Exp1, SKBR3 cells, 11 0.5 µM 3 h vs DMSO
[7] = sheet Exp1, SKBR3 cells, 11 0.5 µM 3 h vs with PU-H71 10 µM
[8] = sheet Merged, SKBR3 cells, 11 0.5 µM 3 h vs DMSO
[9] = sheet Merged, SKBR3 cells, 11 0.5 µM 3 h vs with PU-H71 10 µM

Heat shock cognate 71 kDa protein (HSPA8), sequence (P11142 whole entry): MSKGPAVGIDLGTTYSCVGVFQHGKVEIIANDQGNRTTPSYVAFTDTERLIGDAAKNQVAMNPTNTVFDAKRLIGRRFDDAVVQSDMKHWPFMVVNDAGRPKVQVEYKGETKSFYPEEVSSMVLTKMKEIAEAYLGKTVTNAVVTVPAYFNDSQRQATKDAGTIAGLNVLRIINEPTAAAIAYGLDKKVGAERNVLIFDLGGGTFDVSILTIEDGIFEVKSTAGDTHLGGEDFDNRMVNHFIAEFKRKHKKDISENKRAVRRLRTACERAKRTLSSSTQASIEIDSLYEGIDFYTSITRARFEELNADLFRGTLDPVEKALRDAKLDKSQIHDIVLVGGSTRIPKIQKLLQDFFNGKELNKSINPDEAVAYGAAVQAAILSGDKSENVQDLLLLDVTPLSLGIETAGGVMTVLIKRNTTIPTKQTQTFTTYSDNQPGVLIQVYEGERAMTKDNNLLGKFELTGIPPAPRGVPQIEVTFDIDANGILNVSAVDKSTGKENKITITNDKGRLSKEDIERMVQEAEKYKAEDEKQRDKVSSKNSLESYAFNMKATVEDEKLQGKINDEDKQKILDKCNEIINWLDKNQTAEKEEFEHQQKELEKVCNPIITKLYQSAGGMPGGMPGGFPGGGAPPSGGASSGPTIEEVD
Endoplasmin (HSP90B1), sequence (P14625 22-803): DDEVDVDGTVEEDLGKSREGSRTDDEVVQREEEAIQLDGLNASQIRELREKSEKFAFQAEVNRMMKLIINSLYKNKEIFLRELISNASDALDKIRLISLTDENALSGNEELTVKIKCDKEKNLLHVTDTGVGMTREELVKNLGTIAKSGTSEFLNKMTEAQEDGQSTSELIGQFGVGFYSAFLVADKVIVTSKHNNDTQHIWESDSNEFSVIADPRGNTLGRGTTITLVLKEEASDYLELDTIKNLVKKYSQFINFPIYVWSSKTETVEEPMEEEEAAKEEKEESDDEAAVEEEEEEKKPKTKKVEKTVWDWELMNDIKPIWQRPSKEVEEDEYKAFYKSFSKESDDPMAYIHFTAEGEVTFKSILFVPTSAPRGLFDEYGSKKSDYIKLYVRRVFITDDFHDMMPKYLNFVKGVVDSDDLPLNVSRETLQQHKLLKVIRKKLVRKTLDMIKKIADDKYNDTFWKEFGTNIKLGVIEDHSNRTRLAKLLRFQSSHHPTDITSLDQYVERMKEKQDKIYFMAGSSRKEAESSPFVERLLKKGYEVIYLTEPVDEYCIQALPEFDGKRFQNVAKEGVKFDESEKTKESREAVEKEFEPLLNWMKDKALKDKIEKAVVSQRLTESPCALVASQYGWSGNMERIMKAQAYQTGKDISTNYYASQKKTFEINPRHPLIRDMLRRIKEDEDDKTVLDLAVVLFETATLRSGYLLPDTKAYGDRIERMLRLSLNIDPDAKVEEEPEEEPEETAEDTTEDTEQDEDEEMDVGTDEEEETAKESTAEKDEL
Argininosuccinate synthase (ASS1), sequence (P00966 whole entry): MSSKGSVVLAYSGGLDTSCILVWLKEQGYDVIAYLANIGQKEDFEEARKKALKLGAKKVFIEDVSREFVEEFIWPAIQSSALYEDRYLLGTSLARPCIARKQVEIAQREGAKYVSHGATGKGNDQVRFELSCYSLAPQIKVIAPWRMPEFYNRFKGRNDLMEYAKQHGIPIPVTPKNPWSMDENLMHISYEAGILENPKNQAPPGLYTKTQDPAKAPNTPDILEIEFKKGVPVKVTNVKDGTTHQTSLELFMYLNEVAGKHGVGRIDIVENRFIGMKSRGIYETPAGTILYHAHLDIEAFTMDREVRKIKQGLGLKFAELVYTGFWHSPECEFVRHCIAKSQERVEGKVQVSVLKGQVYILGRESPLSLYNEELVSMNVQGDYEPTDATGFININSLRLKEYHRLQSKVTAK

## CC(=O)Oc1ccc2c(c1)Oc1cc(OC(C)=O)ccc1C21OC(=O)c2cc(C(=O)NCCOCCOCCNC(=O)CCCC(=O)N(CC#N)S(=O)(=O)c3ccc(C(=O)NCCCn4c(Sc5cc6c(cc5I)OCO6)nc5c(N)ncnc54)cc3)ccc21 [compound 11]
[1]; Exp3, ATP1A1
  Abundance Ratio: (11) / (11 with PU-H71): 0.969
  Abundance Ratio: (11) / (DMSO): 3.731
  Abundances (Grouped): 11: 59.7
  Abundances (Grouped): 11 with PU-H71: 61.6
[1]; [6]
  Abundance Ratio: (11) / (DMSO): 1.112
[1]; [7]
  Abundance Ratio: (11) / (11 with PU-H71): 0.455
[1]; sheet Exp2, ATP1A1
  Abundance Ratio: (11) / (11 with PU-H71): 0.735
  Abundance Ratio: (11) / (DMSO): 2.007
  Abundances (Grouped): 11: 162
  Abundances (Grouped): 11 with PU-H71: 220.4
[1]; [8]
  Abundance Ratio: (11) / (DMSO): 1.112
[1]; [9]
  Abundance Ratio: (11) / (11 with PU-H71): 0.455
[2]; 11 0.5 µM 3 h vs DMSO
  Abundance Ratio: (11) / (DMSO): 2.736
[2]; 11 0.5 µM 3 h vs with PU-H71 10 µM
  Abundance Ratio: (11) / (11 with PU-H71): 0.837
[3]; Exp3, HSPA8
  Abundance Ratio: (11) / (11 with PU-H71): 1.213
  Abundance Ratio: (11) / (DMSO): 3.219
  Abundances (Grouped): 11: 407.2
  Abundances (Grouped): 11 with PU-H71: 335.6
[3]; [6]
  Abundance Ratio: (11) / (DMSO): 3.395
[3]; [7]
  Abundance Ratio: (11) / (11 with PU-H71): 1.175
[3]; sheet Exp2, HSPA8
  Abundance Ratio: (11) / (11 with PU-H71): 1.256
  Abundance Ratio: (11) / (DMSO): 4.511
  Abundances (Grouped): 11: 471.4
  Abundances (Grouped): 11 with PU-H71: 375.4
[3]; [8]
  Abundance Ratio: (11) / (DMSO): 3.381
[3]; [9]
  Abundance Ratio: (11) / (11 with PU-H71): 1.191
[4]; Exp3, HSP90B1
  Abundance Ratio: (11) / (11 with PU-H71): 1.101
  Abundance Ratio: (11) / (DMSO): 2.844
  Abundances (Grouped): 11: 158.7
  Abundances (Grouped): 11 with PU-H71: 144.1
[4]; [6]
  Abundance Ratio: (11) / (DMSO): 6.226
[4]; [7]
  Abundance Ratio: (11) / (11 with PU-H71): 1.266
[4]; sheet Exp2, HSP90B1
  Abundance Ratio: (11) / (11 with PU-H71): 0.932
  Abundance Ratio: (11) / (DMSO): 2.232
  Abundances (Grouped): 11: 31.7
  Abundances (Grouped): 11 with PU-H71: 34
[4]; [8]
  Abundance Ratio: (11) / (DMSO): 6.226
[4]; [9]
  Abundance Ratio: (11) / (11 with PU-H71): 1.266
[5]; sheet Exp2, CS
  Abundance Ratio: (11) / (11 with PU-H71): 0.812
  Abundance Ratio: (11) / (DMSO): 1.581
  Abundances (Grouped): 11: 26.4
[5]; sheet Exp2, CS, with PU-H71
  Abundances (Grouped): 11 with PU-H71: 32.5
[5]; [8]
  Abundance Ratio: (11) / (DMSO): 1.555
[5]; [9]
  Abundance Ratio: (11) / (11 with PU-H71): 0.796
